The text below walks through data of patent publication US20100298437A1, “USE OF CITRULLINE FOR TREATING UNDERNUTRITION CONDITIONS” (UNIVERSITE RENE DESCARTES-PARIS 5, priority 2006, published 2010).

The subject of series [1] is epitrochlearis. The series can be described thus: Metabolism of citrulline by isolated incubated muscle (amino acids titrated in incubation medium). The format is in vitro ADME, rat. Particulars: isolated muscle of healthy or undernourished adult rats, no metabolically linked amino acid released in incubation medium (results not shown). As for the experimental part:
Incubated isolated muscles. Muscles were incubated according to a method which had been used previously (Minet-Quinard R, Moinard C, Villie F, Vasson M P, Cynober L. Metabolic pathways implicated in the kinetic impairment of muscle glutamine homeostasis in adult and old glucocorticoid-treated rats. Am J Physiol Endocrinol Metab 2004; 287:E671-E676). Epitrochlearis is used because it is the most suitable for this type of study. After dissection, the epitrochlearis are incubated in 3 mL Krebs-Ringer buffer (119 mM NaCl; 4.8 mM KCl; 1.25 mM MgSO4; 25 mM NaHCO3; 1.24 mM NaHPO4; 1.0 mM CaCl2; 2 mM HEPES, pH 7.4), also containing glucose (8 mM), insulin (0.01 U/ml) and bovine serum albumin (BSA) (0.1% p/v). The muscles are pre-incubated during 30 minutes at 37° C. with 95% O2: 5% CO2. The muscles are then transferred into a tube containing 3 mL incubation medium (with ^13C-phenylalanine (1 mM) with or without 2.5 mM citrulline), and are incubated during 2 hours. At the end of the incubation, the muscles are collected and kept at −80° C. until the incorporation of ^13C-phenylalanine is measured by mass spectrometry in order to determine the Fractional Protein Synthesis (FSR) (Guillet C, Boirie Y, Walrand S. An integrative approach to in-vivo protein synthesis measurement: from whole tissue to specific proteins. Curr Opin Clin Nutr Metab Care 2004; 7:531-538). […]

For series [2] the following is noted: enteral administration, rats with intestinal insufficiency; from FR 03 08349; cited from earlier work.
For series [3] the following is noted: undernourished aged rats, former studies of the inventors; cited from earlier work.
Series [4] concerns epitrochlearis. The series can be described thus: Muscle protein synthesis (FSR) measured in vitro on isolated incubated muscle. Particulars: for increase of muscle protein synthesis (FSR): isolated muscle of undernourished adult rats, 2.5 mM citrulline, 2 hours incubation, versus control without citrulline. Further details: species or system rat. The procedure:
Treatment of animals: Male Sprague-Dawley rats (Charles River Laboratoires, L'Arbresles, France) aged 3 months (n=20) are placed in individual cages in a thermostated atmosphere (23°±1° C.), and subjected to a 12 hr light/dark cycle (dark between 8 a.m.-8 p.m.).
Acclimatization of the rats is carried out during 2 weeks, during which the spontaneous food consumption is measured. The rats are fed a standard diet (A04, UAR, Villemoisson-sur-Orge, France) containing 17% proteins, 3% lipids, 59% carbohydrates and 21% water, fibers, vitamins and minerals. The average dietary intake during this period is 28 g/day for adult rats.
At the end of the acclimatization period, the rats are randomized in 2 groups: a control group made up of rats which are fed ad libitum (AL), and a group which is subjected to dietary restrictions during the same period: the rats are fed at a rate of 50% of spontaneous ingesta during 6 weeks with a 5% protein diet (Walrand S, Chambon-Savanovitch C, Felgines C, Chassagne J, Raul F, Normand B et al. Aging: a barrier to renutrition? Nutritional and immunologic evidence in rats. Am J Clin Nutr 2000; 72:816-824).
Incubated isolated muscles. Muscles were incubated according to a method which had been used previously (Minet-Quinard R, Moinard C, Villie F, Vasson M P, Cynober L. Metabolic pathways implicated in the kinetic impairment of muscle glutamine homeostasis in adult and old glucocorticoid-treated rats. Am J Physiol Endocrinol Metab 2004; 287:E671-E676). Epitrochlearis is used because it is the most suitable for this type of study. […] At the end of the incubation, the muscles are collected and kept at −80° C. until the incorporation of ^13C-phenylalanine is measured by mass spectrometry in order to determine the Fractional Protein Synthesis (FSR) (Guillet C, Boirie Y, Walrand S. An integrative approach to in-vivo protein synthesis measurement: from whole tissue to specific proteins. Curr Opin Clin Nutr Metab Care 2004; 7:531-538). […]

The subject of a further series is P70S6kinase. The experiment in a line: In vivo activation of the mTOR pathway: P70S6kinase by Western Blot in tibialis muscles of undernourished aged rats. Details: species or system rat. Particulars: tibialis muscle. As for the experimental part:
Treatment of animals: Forty male Sprague-Dawley rats aged 19 months (Charles River, L'Arbresle, France) were used. During an acclimatization period of 2 weeks the animals were fed ad libitum with a standard diet (UARA04, Usine d'Alimentation Rationnelle, Villemoisson-sur-Orge). Measurement of the spontaneous ingesta was carried out regularly. After this period 30 rats were subjected to a 50% dietary restriction during 12 weeks. Sacrificing 10 rats, used as a control group (group R), was carried out at the end of the dietary restriction period. The other 20 animals were again fed during one week before being sacrificed. Isonitrogen and isocaloric diets were either a standard diet enriched with citrulline 5 g/kg/d (n=10, group R+CIT), or a standard diet enriched with non essential amino acids (Ala, Gly, His, Asp, Ser in an equimolar ratio) (n=10, group R+AANE). Ten rats make up the control group (A.L); they are fed ad libitum all along the study before being sacrificed. Then the rats are sacrificed. The tibialis muscles are taken and quickly frozen in liquid nitrogen, then stored at −80° C. until analysis.
Extraction of proteins and titration: The muscles are ground in liquid nitrogen with a mortar. The thus obtained powder is weighed, and then taken again in 10 volumes of a solubilization buffer containing a cocktail of phosphatase and protease inhibitors. […]
On the technique in general: A western blot detects proteins with antibodies after separation by electrophoresis.

Molecules are shown by their SMILES.

Take `NC(=O)NCCC[C@H](N)C(=O)O` [L-citrulline]: the “metabolism of citrulline by the muscle” value in the series with epitrochlearis [1] (listed as Citrulline) is “not metabolized”; with epitrochlearis [1] (listed as citrulline) it was “no capacity to metabolize”. Also, the body weight result in series [2] was “allowed these rats to take on weight again”. For the same compound, in series [3], the protein synthesis level entry was “restore a protein synthesis level which is equivalent to the baseline protein synthesis level among healthy aged rats”. Further, the “increase of muscle protein synthesis (FSR)” value is on record as “+27%” in the series on epitrochlearis [4] and “up to 30%” in the series on epitrochlearis [4] (listed as citrulline). For the same compound, the “effect on protein synthesis” value in the series on epitrochlearis [4] (isolated muscles of healthy adult rats, citrulline added in vitro) was “no effect”. Moreover, the “activity of P70S6 kinase as compared with group R” value in the series on P70S6kinase (12 weeks 50% dietary restriction, then one week diet enriched with citrulline 5 g/kg/d) was “+417%”. In addition, the “activity of P70S6 kinase compared with control group A.L. (in words)” value in the series on P70S6kinase (dietary restriction, then one week enriched diet) is listed as “not being significantly different”.
